Assay results from patent publication US4861774A, “Method of treating tumors using tetracyclo compounds” (priority 1984, dated 1989).
Converted amounts (≈) assume the structure as drawn.

Columns and labels:
[1] = tested on: Escherichia coli NIHJ JC-2; assay: Antimicrobial activity, serial broth dilution (Test 2), Escherichia coli; format: cell-based; settings: NIHJJC2, overnight incubation at 37° C.
Description: (§1) Antimicrobial activity of the FR-900482 substance against some bacteria was determined by a serial broth dilution method in bouillon media for bacteria. Minimum inhibitory concentrations (MIC) were expressed in terms of μg/ml after overnight incubation at 37° C.

[2] = tested on: Pseudomonas aeruginosa NCTC-10490; assay: Antimicrobial activity, serial broth dilution (Test 2), Pseudomonas aeruginosa; format: cell-based; settings: NCTC10490, overnight incubation at 37° C.
Description: as §1

[3] = Acute toxicity in ddY mice (Test 3); settings: mouse, in vivo
L1210 Leukemia = L1210 Leukemia ascitic tumor in mice (Test 5); format: in vivo, mice (BDF1 or CDF1); settings: 10.0 mg/kg i.p., days 1-9, BDF1 mice
From the text: L1210 Leukemia (1×10^5 cells), maintained i.p. by serial passage in female DBA/2 mice, was implanted i.p. to female BDF1 or CDF1 mice on day 0, and the test compounds or vehicle were given i.p. to the mice once a day on days 1-9.
(§2) Ten mice were used for each test group, and twenty mice were used for each vehicle-treated control group.
(§3) Drug efficacy against the ascitic tumors is expressed as percentage of the median (mean) survival time of the test group to that of the control group. [formula] .circle.2 Results

B16 Melanoma = B16 Melanoma in mice (Test 5); format: in vivo, mice (BDF1); settings: 10.0 mg/kg i.p., days 1-9
Description: B16 Melanoma (1:10 brei, 0.5 ml), maintained s.c. by serial passage in female C57BL/6 mice, was implanted i.p. to female BDF1 mice on day 0, and the test compounds or vehicle were given i.p. to the mice once a day on days 1-9.
as §2, §3

MM46 Mammary carcinoma = MM46 Mammary carcinoma in mice (Test 6); format: in vivo, mice (C3 H/HeN); settings: 3.2 mg/kg i.p., days 1, 5 and 9; median survival time
From the text: MM46 Mammary carcinoma (1×10^6 cells), maintained i.p. by serial passage in female C3 H/HeN mice, was implanted i.p. to female C3 H/HeN mice on day 0, and the test compounds or vehicle were given i.p. to the mice once a day on days 1, 5 and 9.
(§4) Ten mice were used for each test group and twenty mice were used for each vehicle-treated control group.
(§5) Drug efficacy against the ascitic tumors is expressed as percentage of the median survival time of the test group to that of the control group. [formula]

Ehrlich carcinoma = Ehrlich carcinoma in mice (Test 6); format: in vivo, mice (ICR); settings: 3.2 mg/kg i.p., days 1, 5 and 9; median survival time
From the text: Ehrlich carcinoma (1×10^6 cells), maintained i.p. by serial passage in female ICR mice, implanted i.p. to female ICR mice on day 0, and the test compounds or vehicle were given i.p. to the mice once a day on days 1, 5 and 9.
as §4, §5

EL4 Lymphoma = EL4 Lymphoma in mice (Test 6); format: in vivo, mice (BDF1); settings: 10.0 mg/kg i.p., days 1, 5 and 9; median survival time
From the text: EL4 Lymphoma (1×10^6 cells), maintained i.p. by serial passage in female C57BL/6 mice, was implanted i.p. to female BDF1 mice on day 0, and the test compounds or vehicle were given i.p. to the mice once a day on days 1, 5 and 9.
as §4, §5

AH130 Hepatoma = assay: in vivo rat ascitic tumor model, AH130 Hepatoma (Test 8); design: species or system rats (Donryu); settings: 1.0 mg/kg i.p., days 1, 5 and 9; median survival time
From the text: (§6) AH130 Hepatoma (1×10^6 cells), maintained i.p. by serial passage in female Donryu rats, was implanted i.p. to female Donryu rats on day 0, and the test compounds or vehicle were given i.p. to the rats once a day on days 1, 5 and 9. Ten rats were used for each test group or vehicle-treated control group.
as §5

AMC60 Fibrosarcoma = assay: in vivo rat ascitic tumor model, AMC60 Fibrosarcoma (Test 8); design: species or system rats (ACI/N); settings: 3.2 mg/kg i.p., days 1, 5 and 9; median survival time
From the text: as §6, with “AMC60 Fibrosarcoma” for “AH130 Hepatoma”, “ACI/N” for “Donryu”, “Seven” for “Ten”
as §5

Human LX-1 lung = Human LX-1 lung tumor in nude mice (Test 9); format: in vivo, human (in BALB/c nu/nu mice); settings: 18.0 mg/kg i.v., days 12, 16 & 20; evaluation day 28
Description: (§7) Human LX-1 lung or MX-1 mammary (each fragment, 2×2×2 mm), maintained s.c. by serial passage in male BALB/c nu/nu mice, was implanted s.c. to male BALB/c nu/nu mice on day 0, and the test compounds or vehicle were given i.v. to the mice once a day on specified days in Table 9.
(§8) Tumor weight was calculated as follows: (Tumor length and width were measured by caliper.)
(§9) Tumor weight (mg)=1/2×a×b^2, where a represents length and b represents width (mm).
(§10) Tumor weights (initial) and (last) were calculated on the first injection day (just before dosing) and on day 21, 27 or 28 (the last evaluation day), respectively.
(§11) Five mice were used for each test group and 5 or 10 mice were used for each vehicle-treated control group.
(§12) Drug efficacy was expressed as percentage of mean tumor weight of the test group to that of the control group. [formula]

Human MX-1 mammary = Human MX-1 mammary tumor in nude mice (Test 9); format: in vivo, human (in BALB/c nu/nu mice); settings: 10.0 mg/kg i.v., days 11, 15 & 19; evaluation day 27
Description: as §7, §8, §9, §10, §11, §12

[4] = tested on: Human LC-6-JCK lung carcinoma; assay: Human LC-6-JCK lung carcinoma in nude mice (Test 10); format: in vivo, human (in BALB/c nu/nu mice); settings: 10.0 mg/kg i.v., days 12, 16 and 20; evaluation day 28
Description: Human LC-6-JCK lung or SC-6-JCK stomach (each fragment, 2×2×2 mm), maintained s.c. by serial passage in male BALB/c nu/nu mice, was implanted s.c. to male BALB/c nu/nu mice on day 0, and the test compounds were given i.v. to the mice once a day on days 12, 16 and 20.
as §8, §9
Tumor weights (initial) and (last) were calculated on the first injection day (just before dosing) and on day 28 (the last evaluation day), respectively.
Five mice were used for each test group and four or five mice were used for each vehicle-treated control.
as §12

[5] = Existence as mixture or single component by NMR spectra or silica gel TLC with chromatoscanner; format: physicochemical

## NC(=O)OCC1c2c(O)cc(C=O)cc2N2CC3NC3C1(O)O2 (stereo not drawn) [FR-900482 substance, 4-Formyl-6,9-dihydroxy-14-oxa-1,11-diazatetracyclo[7.4.1.0^2,7.0^10,12]tetradeca-2,4,6-trien-8-ylmethyl carbamate]
[1]
  MIC: 50 µg/mL (≈ 156 µM)
[2]
  MIC: 25 µg/mL (≈ 77.8 µM)
[3]; ip, intraperitoneal injection
  LD50: 32 mg/kg
[3]; intravenous injection
  LD50: 32 mg/kg
L1210 Leukemia
  T/C: > 190%
B16 Melanoma
  T/C: 350%
MM46 Mammary carcinoma
  T/C: > 300%
Ehrlich carcinoma
  T/C: > 270%
EL4 Lymphoma
  T/C: 169%
AH130 Hepatoma
  T/C: > 429%
AMC60 Fibrosarcoma
  T/C: > 333%
Human LX-1 lung
  1-T"/C": 97%
Human MX-1 mammary
  1-T"/C": 100%
[4]
  1-T"/C": 100%
[5]; around neutral condition
  existence as mixture or single component: mixture of two components
[5]; around pH 1 condition
  existence as mixture or single component: single component
Solubility; acetone
  Solubility: Insoluble
Solubility; chloroform
  Solubility: Insoluble
Solubility; ethyl acetate
  Solubility: Insoluble
Solubility; methanol
  Solubility: Soluble
Solubility; water
  Solubility: Soluble
